Laboratory results reported in the supplement of paper PMC6045584.
± gives the standard deviation of the averaged measurements.

How the values were obtained:
[1] = compound: O=C(NOCC1CC1)c1ccc(F)c(F)c1Nc1ccc(I)cc1Cl; assay: surviving fraction relative to DMSO-only wells; higher = less growth inhibition; conditions: exposure time: 5 days
In short: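 Inhibitors were tested at 0.5, 1, 5, 10, 50, 100, 500 and 1000 nM, applied continuously for five days beginning 24 hours after log-phase tumour cells were seeded at 250–500 per well in 384-well plates. CellTiter-Glo luminescence served as the viability measure, expressed as surviving fraction against the median of DMSO-only wells. Each line, screened three times, was kept only with replicate Pearson r >0.7 and median Z' >0.3.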

ERLOTINIB = compound: C#Cc1cccc(Nc2ncnc3cc(OCCOC)c(OCCOC)cc23)c1 [ERLOTINIB]; assay: area under dose-response curve of surviving fraction (unscaled, Aref=0) (surviving fraction x log10(nM)); higher = more resistant; conditions: exposure time: 5 days; dose range 0.5-1000 nM
In short: (§1)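 Tumour cell lines in 384-well plates were exposed for five days to eight inhibitor concentrations from 0.5 to 1000 nM. Viability was read by CellTiter-Glo luminescence, normalised to DMSO-only wells, in three screens per line. Dose-response survival curves were fitted to surviving fractions by 3-parameter logistic regression in the drc R package. Area under the curve is the unscaled activity area (Aref = 0) over log10 dose.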

VINORELBINE = compound: CCC1=C[C@@H]2CN(C1)Cc1c([nH]c3ccccc13)[C@@](C(=O)OC)(c1cc3c(cc1OC)N(C)[C@H]1[C@@](O)(C(=O)OC)[C@H](OC(C)=O)[C@]4(CC)C=CCN5CC[C@]31[C@@H]54)C2 [VINORELBINE]; assay: as above; conditions: exposure time: 5 days; dose range 0.5-1000 nM
In short: as §1

METHOTREXATE = compound: CN(Cc1cnc2nc(N)nc(N)c2n1)c1ccc(C(=O)N[C@@H](CCC(=O)O)C(=O)O)cc1 [METHOTREXATE]; assay: as above; conditions: exposure time: 5 days; dose range 0.5-1000 nM
In short: as §1

EVEROLIMUS = compound: CO[C@H]1C[C@@H]2CC[C@@H](C)[C@@](O)(O2)C(=O)C(=O)N2CCCC[C@H]2C(=O)O[C@H]([C@H](C)C[C@@H]2CC[C@@H](OCCO)[C@H](OC)C2)CC(=O)[C@H](C)/C=C(\C)[C@@H](O)[C@@H](OC)C(=O)[C@H](C)C[C@H](C)/C=C/C=C/C=C/1C [EVEROLIMUS]; assay: as above; conditions: exposure time: 5 days; dose range 0.5-1000 nM
In short: as §1

AZD4547 = compound: COc1cc(CCc2cc(NC(=O)c3ccc(N4CC(C)NC(C)C4)cc3)n[nH]2)cc(OC)c1 [AZD4547]; assay: as above; conditions: exposure time: 5 days; dose range 0.5-1000 nM
In short: as §1

ETOPOSIDE = compound: COc1cc([C@@H]2c3cc4c(cc3[C@@H](O[C@@H]3O[C@@H]5CO[C@@H](C)O[C@H]5[C@H](O)[C@H]3O)[C@H]3COC(=O)[C@H]23)OCO4)cc(OC)c1O [ETOPOSIDE]; assay: as above; conditions: exposure time: 5 days; dose range 0.5-1000 nM
In short: as §1

[2] = compound: Cc1nc(Nc2n[nH]c3c2CN(C(=O)N[C@H](CN(C)C)c2ccccc2)C3(C)C)c2sccc2n1; assay: as above; conditions: exposure time: 5 days; dose range 0.5-1000 nM
In short: as §1

MK2206 = compound: NC1(c2ccc(-c3nc4ccn5c(=O)[nH]nc5c4cc3-c3ccccc3)cc2)CCC1 [MK2206]; assay: as above; conditions: exposure time: 5 days; dose range 0.5-1000 nM
In short: as §1

GEMCITABINE = compound: Nc1ccn([C@@H]2O[C@H](CO)[C@@H](O)C2(F)F)c(=O)n1 [GEMCITABINE]; assay: as above; conditions: exposure time: 5 days; dose range 0.5-1000 nM
In short: as §1

[3] = compound: O=C(NOCC1CC1)c1ccc(F)c(F)c1Nc1ccc(I)cc1Cl; assay: as above; conditions: exposure time: 5 days; dose range 0.5-1000 nM
In short: as §1

PLX-4720 = compound: CCCS(=O)(=O)Nc1ccc(F)c(C(=O)c2c[nH]c3ncc(Cl)cc23)c1F [PLX-4720]; assay: as above; conditions: exposure time: 5 days; dose range 0.5-1000 nM
In short: as §1

Test System	surviving fraction ([1]; 0.5 nM)	surviving fraction ([1]; 1 nM)	surviving fraction ([1]; 5 nM)	surviving fraction ([1]; 10 nM)	surviving fraction ([1]; 50 nM)	surviving fraction ([1]; 100 nM)	surviving fraction ([1]; 500 nM)	surviving fraction ([1]; 1000 nM)	area under dose-response curve (ERLOTINIB)	area under dose-response curve (VINORELBINE)	area under dose-response curve (METHOTREXATE)	area under dose-response curve (EVEROLIMUS)	area under dose-response curve (AZD4547)	area under dose-response curve (ETOPOSIDE)	area under dose-response curve [2]	area under dose-response curve (MK2206)	area under dose-response curve (GEMCITABINE)	area under dose-response curve [3]	area under dose-response curve (PLX-4720)
C33A CERVIX	0.68 ± 0.058	0.7503 ± 0.0031	0.868 ± 0.12	0.841 ± 0.071	0.736 ± 0.085	0.686 ± 0.047	0.477 ± 0.066	0.461 ± 0.032	3.19	1.62	2.33	1.43	3.03	2.61	0.95	3.12	1.15	2.3	
CAL72 BONE	1.045 ± 0.0036	1.065 ± 0.0074	1.07 ± 0.012	1.09 ± 0.041	1.051 ± 0.0061	1.085 ± 0.0095	1.07 ± 0.021	1.056 ± 0.0038	3.5	2.14	2.39	2.27	1.94	3.1	1.77	3.66	1.4	3.52	3.44
G292 BONE	0.986 ± 0.059	0.942 ± 0.064	0.985 ± 0.052	0.986 ± 0.035	0.967 ± 0.041	0.959 ± 0.058	0.897 ± 0.047	0.924 ± 0.0059	3.44	1.48	3.41	1.68	1.58	2.76	1.22	2.96	1.39	3.17	3.19
HCC1395 BREAST	0.997 ± 0.2	0.963 ± 0.14	0.951 ± 0.17	0.958 ± 0.2	0.838 ± 0.14	0.96 ± 0.052	0.86 ± 0.075	0.979 ± 0.042	3.97	2.74	3.78	3.36	2.6	3.25	3.37	3.23		3.01	2.7
HUO3N1 BONE	1.04 ± 0.051	1.01 ± 0.056	1.05 ± 0.03	1.04 ± 0.029	1.03 ± 0.037	1.01 ± 0.011	0.935 ± 0.017	1 ± 0.029	3.54	2	2.8	2.1	2.9	2.97	2.38	2.94	1.51	3.35	3.12
LNCAP PROSTATE	0.795 ± 0.11	0.855 ± 0.081	0.828 ± 0.11	0.99 ± 0.11	0.854 ± 0.17	0.921 ± 0.094	0.945 ± 0.024	0.884 ± 0.18	3.2	1.23	2.36	1.21	2.84	2.68	0.726	2.02	1.22	2.93	3.17
SCC003 HEADNECK	0.843 ± 0.1	0.826 ± 0.05	0.942 ± 0.11	0.907 ± 0.086	0.917 ± 0.079	0.924 ± 0.056	0.689 ± 0.037	0.648 ± 0.033	3.14	1.98	2.41				1.57		1.57	2.83	2.97
